The test system of data set [1] is Jurkat cells (ATCC TIB-152). In words: Influence on cell survival rate (alamarBlue). The format is cell-based. The settings on record: cultured 24 hours with compound. The procedure:
Jurkat cells (ATCC TIB-152) passaged on 10% fetal calf serum-containing RPMI medium (10F-RPMI, GIBCO) were suspended in the same medium to a cell population of 5 x 10^5 cells/ml, and the suspension was placed in each well of a 96-well plate (COSTAR) in an amount of 100 µl/well, followed by culturing the cells at 37°C under 5% CO2 for 24 hours. Then alamarBlue®(BioSource) was added in an amount of 10 µl/well and the cells were cultured for another 4 hours. Thereafter, the absorbance at 570 nm and 600 nm was measured with a microplate reader (BioRad model 3550). The test compound dissolved in 10F-RPMI was mixed with the Jurkat cells and the cells were cultured for 24 hours to examine its influence.
Background: Alamar Blue is a resazurin reagent that responds to reducing activity.

Another data set concerns superoxide. In words: Radical scavenger action (superoxide from xanthine and xanthine oxidase). Format: biochemical. Particulars: luminescence at 380 nm, 10 to 60 seconds after xanthine oxidase addition. The procedure: The radical scavenger action of the compounds was measured using the amount of the superoxide as an index, which is produced when xanthine and xanthine oxidase are reacted. First, 1 mM of xanthine (SIGMA) dissolved in Hanks buffer solution (GIBCO), 2 mM dietylenetriamine-N,N,N',N"-pentaacetic acid (DOJIN) and 40 µM 2-methyl-6-phenyl-3,7-dihydroimidazo[1,2-a]pyrazin-3-one (TOKYO KASEI KOGYO) dissolved in distilled water when use were mixed. Further, 0.3 U/ml xanthine oxidase (BMY) dissolved in Hanks buffer when use was added. Luminescence intensity at 380 nm from 10 seconds to 60 seconds after the addition was measured by Lumat (Berthold, LB9501), and the measured amount was defined as the amount of produced superoxide. The test compound was added to the xanthine-containing solution before addition of the xanthine oxidase, and the resulting mixture was preincubated at 25°C for 5 minutes to examine its influence.

In a further data set the test system is Mouse Asthma Model. As to the kind of experiment: Mouse asthma model (OVA/Alum sensitization, OVA inhalation, airway anaphylaxis and BALF eosinophils). The settings on record: at a dose of not more than 150 mg/kg, topically or systemically. Format: in vivo, BLAB/c mouse. As for the experimental part: A mixed solution containing aluminum hydroxide gel (Alum) on which ovalbumin (hereinafter "OVA") was adsorbed (20 ∝g OVA/2mg Alum/200 ∝l physiological saline) was intraperitoneally administered to each BLAB/c mouse (female, 7 weeks old, JAPAN CHARLES RIVER) at a dose of 200 ∝l ([…]) per time on DAY-1 and DAY-14 to sensitize the mouse. Then each mice was made to aspire 2% OVA dissolved in physiological saline on DAY-28, 29 and 30 to induce inflammation. Compound Nos. 143 and 236 used as the test compounds were dissolved in physiological saline and each solution was topically or systemically administered at 30 minutes before induction by OVA, and twice a day after induction.
On DAY-31, development of airway anaphylaxis was measured using a non-restrictive chamber (BUXCO). Then the bronchus of each mouse was incised and the bronchus and alveoli were washed (BAL) with 0.7 ml of physiological saline. After the washing, the washing fluid (BALF) of the bronchus and alveoli was recovered and centrifuged. The leukocytes contained in the BALF were subjected to site spin to prepare a smear specimen. After staining the specimen by May-Giemsa staining method, the leukocytes were grouped and counted under microscope to determine the number of eosinophils. The experiment was carried out using 6 to 8 mice in each group. The results are shown in terms of mean ± standard error.

Turning to `Cc1cccc(Br)c1C(=O)N[C@@H](Cn1ccc(NC(=O)c2c(Cl)cccc2Cl)nc1=O)C(=O)O` [Example 240, (2S)-3-(4-((2,6-dichlorophenyl)carbonylamino)-2-oxohydropyrimidinyl)-2-((2-bromo-6-methylphenyl)carbonylamino)propionic acid], the “influences on the survival rate of the cells relative to 3-(4-((2,6-dichlorophenyl)carbonylamino)phenyl)-2-((6-bromo-2-methylphenyl)carbonylamino)propanoic acid” value in data set [1] was “not more than 1/4”. The “radical scavenger activities relative to 3-(4-((2,6-dichlorophenyl)carbonylamino)phenyl)-2-((6-bromo-2-methylphenyl)carbonylamino)propanoic acid” value in the data set with superoxide is listed as 2 to 5 times.

Take `O=C(Nc1ccn(C[C@H](NC(=O)c2c(Cl)cccc2Cl)C(=O)O)c(=O)n1)c1c(Cl)cccc1Cl` [Example 236, (2S)-2-((2,6-dichlorophenyl)carbonylamino)-3-(4-((2,6-dichlorophenyl)carbonylamino)-2-oxohydropyrimidinyl)propionic acid]: in data set [1], the “influences on the survival rate of the cells relative to 3-(4-((2,6-dichlorophenyl)carbonylamino)phenyl)-2-((6-bromo-2-methylphenyl)carbonylamino)propanoic acid” value was “not more than 1/4”. In addition, the “accumulation of eosinophils to the lung” value in the data set on Mouse Asthma Model (BALF on DAY-31) is “inhibited”. Moreover, the “progress of airway anaphylaxis” value with Mouse Asthma Model (DAY-31) is “inhibited”. For the same compound, the “radical scavenger activities relative to 3-(4-((2,6-dichlorophenyl)carbonylamino)phenyl)-2-((6-bromo-2-methylphenyl)carbonylamino)propanoic acid” value in the data set with superoxide is on record as 2 to 5 times.
